Reference: US20050003500A1, “(2S, 3S) -2,3-butanediol dehydrogenase” (Daicel Chemical Industries, Ltd., priority 2003, published 2005)

test system: (2S,3S)-2,3-butanediol dehydrogenase; test: Dehydrogenase (oxidative) activity of the purified enzyme on various substrates, NAD+ as coenzyme; format: biochemical, Zoogloea ramigera; conditions: oxidation; substrate 50 mM, standard reaction condition; activity on (2S,3S)-2,3-butanediol taken as 100
Experimental: (§1) React a reaction solution containing 50 mM glycine-sodium hydroxide buffer (pH 11.0), 2.5 mM NAD^+, 50 mM (2S,3S)-2,3-butanediol and the enzyme at 30° C. Then, measure the increase of absorbance at 340 nm relative to the increase of NADH. 1 U is defined as the amount of enzyme that catalyzes a 1-μmol increase of NADH in 1 minute.
The dehydrogenase activity of the enzyme obtained in Example 1 was measured against various substrates (50 mM) under the standard reaction condition.

Row | Molecule | Relative activity (%)
1 | (R)-2-butanol | 1.11%
2 | OC[C@@H](O)CCl [(R)-3-chloro-1,2-propanediol] | 3.62%
3 | CC(O)C(C)O (stereo not drawn) [meso-2,3-butanediol] | 0%
4 | CC(=O)C(C)O (stereo not drawn) [Acetoin] | 0.26%
5 | OC[C@H](O)CCl [(S)-3-chloro-1,2-propanediol] | 0%
6 | (S)-2-butanol | 43.3%
7 | C[C@@H](O)[C@@H](C)O [(2R,3R)-2,3-butanediol] | 2.89%
8 | C[C@@H](O)CO [(R)-1,2-propanediol] | 0.90%
9 | C[C@H](O)[C@H](C)O [(2S,3S)-2,3-butanediol] | 100%
10 | C[C@H](O)CO [(S)-1,2-propanediol] | 55.3%

test system: (2S,3S)-2,3-butanediol dehydrogenase; test: Reductive activity of the purified enzyme on various substrates, NADH as coenzyme; format: biochemical, Zoogloea ramigera; conditions: reduction; substrate 50 mM, standard reaction condition; activity on 2,3-butanedione taken as 100
Experimental: React a reaction solution containing 50 mM potassium phosphate buffer (pH 5.5), 0.2 mM NADH, 20 mM 2,3-butanedione and the enzyme at 30° C. Then, measure the decrease of absorbance at 340 nm relative to the decrease of NADH. 1 U is defined as the amount of enzyme that catalyzes a 1-μmol decrease of NADH in 1 minute. The protein can be quantified by a dye binding method using BioRad protein assay kit.
The reductive activity of the enzyme obtained in Example 1 was measured on various substrates (50 mM) under the standard reaction condition.

Row | Molecule | Relative activity (%)
11 | CC(=O)C(C)O (stereo not drawn) [Acetoin] | 58.9%
12 | CC(=O)C(C)=O [2,3-Butanedione] | 100%

test system: (2S,3S)-2,3-butanediol dehydrogenase; test: Activation of (2S,3S)-2,3-butanediol dehydrogenase activity by divalent ions; format: biochemical, Zoogloea ramigera; conditions: divalent ion 1 mM; activity in the absence of the ions taken as 100
Experimental: as §1
The activation effect by a divalent ion can be measured as described above by adding 1 mM of a metal ion into the above-mentioned reaction solution.

Row | Molecule | Relative activity (%)
13 | [Ba+2] [Ba^2+] | 112%
14 | [Ca+2] [Ca^2+] | 113%
15 | [Mg+2] [Mg^2+] | 110%
16 | [Ni+2] [Ni^2+] | 104%
17 | [Zn+2] [Zn^2+] | 109%
18 | [Cu+2] [Cu^2+] | 107%
19 | [Mn+2] [Mn^2+] | 104%
20 | [Co+2] [Co^2+] | 106%

test system: not listed separately; test: (2S,3S)-2,3-butanediol oxidation activity of enzyme preparations from Zoogloea ramigera; format: biochemical; conditions: fraction after each purification step
Experimental: as §1
Zoogloea ramigera strain DSM287 was cultured at 28° C. for 54 hours in 1.2 L of YPD medium that uses glycerol as a carbon source, and wet bacterial cells were prepared by centrifugation. Approximately 30 g of the obtained wet bacterial cells were suspended in a 50 mL solution of 50 mM potassium phosphate buffer (pH8.0) and 1 mM 2-mercaptoethanol. The cells were then disrupted using Multi-beads shocker (Yasui Kikai), and bacterial cell debris was removed by centrifugation to obtain cell-free extract. Protamine sulfate was added to this cell-free extract and nucleic acids were removed by centrifugation to yield the supernatant. Ammonium sulfate was added to this supernatant up to 30% saturation, and this was applied onto phenyl-sepharose column (2.6 cm×10 cm) equilibrated with standard buffer (10 mM Tris-HCl buffer (pH8.0) and 0.01% 2-mercaptoethanol) comprising 30% ammonium sulfate. After washing the column with the same buffer, gradient elution was performed with 30% to 0% saturated ammonium sulfate. […]

Row | Molecule | Specific activity (U/mg)
21 | Hydroxyapatite | 60.9 U/mg

target: L-2,3-butanediol dehydrogenase (Corynebacterium glutamicum, UniProt Q9ZNN8); test: not given; conditions: Biosci. Biotechnol. Biochem. 65, 1876-1878 (2001); cited from earlier work
Sequence (Q9ZNN8 whole entry): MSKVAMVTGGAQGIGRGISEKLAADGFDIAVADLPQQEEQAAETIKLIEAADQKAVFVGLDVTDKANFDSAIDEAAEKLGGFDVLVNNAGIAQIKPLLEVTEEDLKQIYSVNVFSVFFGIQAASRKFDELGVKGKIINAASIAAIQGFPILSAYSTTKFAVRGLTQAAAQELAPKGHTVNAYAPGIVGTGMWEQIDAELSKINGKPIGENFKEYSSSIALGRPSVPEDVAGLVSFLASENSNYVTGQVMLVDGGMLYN

Row | Molecule | activity of the enzyme towards the substrate
22 | CCC(C)O (stereo not drawn) [2-butanol] | lacks activity

target: acetoin reductase (Klebsiella pneumoniae, UniProt Q48436); test: not given; conditions: J. Ferment. Technol. 83, 32-37 (1997); cited from earlier work
Sequence (Q48436 whole entry): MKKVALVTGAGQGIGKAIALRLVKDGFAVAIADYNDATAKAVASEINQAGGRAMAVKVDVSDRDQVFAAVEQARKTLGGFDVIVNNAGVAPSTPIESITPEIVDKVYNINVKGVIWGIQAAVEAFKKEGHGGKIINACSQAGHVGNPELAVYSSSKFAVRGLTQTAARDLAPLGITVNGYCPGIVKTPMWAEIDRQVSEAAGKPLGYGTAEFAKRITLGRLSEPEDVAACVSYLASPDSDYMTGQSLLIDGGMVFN

Row | Molecule | action of the enzyme on the substrate
23 | CC(O)C(C)O (stereo not drawn) [meso-2,3-butanediol] | specifically act
24 | C[C@H](O)[C@H](C)O [(2S,3S)-2,3-butanediol] | doesnot act
